Measurements taken from patent US11014898B1, “Benzothiazepine compounds and their use as bile acid modulators” (Albireo AB, priority 2020, dated 2021).

Assays:
Human IBAT = biological target: T1, Human IBAT (Homo sapiens, UniProt Q12908); assay: IBAT (h) assay: 3H-taurocholic acid uptake in human IBAT-overexpressing cells; format: cell-based; conditions: 0.25 μM 3H-taurocholic acid and 5 μM cold taurocholic acid, 20 minutes, read-out: hIBAT IC50
T1 construct: expressed in transfected cells; cells kept under Puromycin selection
T1 sequence (Q12908 1-348): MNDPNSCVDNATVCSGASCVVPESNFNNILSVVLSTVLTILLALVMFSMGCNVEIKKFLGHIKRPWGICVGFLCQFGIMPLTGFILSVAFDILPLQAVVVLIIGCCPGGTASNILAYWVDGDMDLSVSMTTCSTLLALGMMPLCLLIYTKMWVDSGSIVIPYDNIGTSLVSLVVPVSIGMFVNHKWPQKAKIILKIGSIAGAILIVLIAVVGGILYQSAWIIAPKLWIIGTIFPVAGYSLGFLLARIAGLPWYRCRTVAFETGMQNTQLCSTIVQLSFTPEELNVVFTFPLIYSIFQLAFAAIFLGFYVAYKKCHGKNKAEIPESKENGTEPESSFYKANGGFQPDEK
In short: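 IBAT-overexpressing cells, grown 48 h, were exposed 20 min at 37° C to inhibitor (10-point 3-fold series, top 10 μM, 0.2% DMSO) with 0.25 μM 3H-taurocholic acid plus 5 μM cold taurocholate in FBS-free medium. After ice stop and washes with chilled 1 mM taurocholate in HEPES-HBSS pH 7.4, cell-associated radioactivity was scintillation-counted.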

[1] = Bidirectional permeability assay (Caco-2 cells); format: in vitro ADME; conditions: human, Caco-2, pH 7.4, 10 μM in FaSSIF buffer, 120 minutes at 37° C.; for Papp A→B at 120 min, 10 μM: absorptive direction (A2B); for Papp B→A at 120 min, 10 μM: secretory direction (B2A)
Experimental: Caco-2 cells (Evotec) were seeded at a density of 70,000 cells/well in Millicell® 24-well cell culture insert plates and maintained in an incubator (37° C., 5% CO2, 95% RH) for 21 days with media change on alternate days.
Stock solutions (10 mM) of the test compounds, atenolol (low permeability marker), propranolol (high permeability marker) and digoxin (substrate for P-gp transport pathway) were prepared in dimethylsulfoxide (DMSO). An intermediate stock solution (1 mM) was prepared by diluting 10 μL of 10 mM master stock solution with 90 μL of neat DMSO. A working stock solution (10 μM) was prepared by diluting 50 μL of 1 mM with 4950 μL of FaSSIF buffer. Post addition of compounds to the FaSSIF, samples were subjected to sonication for 2 hours, and centrifuged at 4000 RPM for 30 minutes at 37° C. The 4 mL of resultant supernatant was directly used in the assay. The final DMSO concentration in the transport experiments was 1%.
On the day of assay, Caco-2 monolayers were washed twice with transport buffer (HBSS, pH 7.4) and pre-incubated for 30 min (37° C., 5% CO2, 95% RH) in an incubator. The electrical resistance of the monolayers was measured with a Millicell®-ERS system. Monolayers with trans-epithelial electrical resistance (TEER) values greater than 350 ohm·cm^2 were selected for the assay.
The assay was conducted in absorptive direction (A2B) and secretory (B2A) directions. Transport experiments were initiated by addition of transport assay buffer (FaSSIF buffer prepared in HBSS) consisting of compounds to the donor compartment (apical chamber A-B; basolateral chamber B-A) in duplicate (n=2) wells. Drug free HBSS buffer (pH 7.4) containing 1% bovine serum albumin (BSA) was introduced to the receiver (A-B-basolateral; B-A-Apical) compartments. The volumes of apical and basolateral compartments were 0.4 and 0.8 mL, respectively. After adding dosing solution, plates were incubated in an incubator for 120 minutes at 37° C. After 120 minutes, donor and receiver samples were collected and matrix matched (1:1, 30 μL study sample+30 μL blank buffer) with the opposite buffer. Dosing samples matrix matched (1:1, 30 μL study sample+30 μL blank buffer) with the opposite buffer. Samples were processed by adding acetonitrile containing internal standard (60 μL study sample+200 μL acetonitrile containing internal standard-Tolbutamide, 500 ng/mL). Samples were vortexed and centrifuged at 4000 rpm for 10 minutes. The obtained supernatant (100 μL) was diluted with 100 μL of water and transferred to fresh 96 well plates. The concentration of compounds in the samples was analyzed by liquid chromatography tandem mass spectrometry (LC-MS/MS) method using discovery grade bio-analytical method, as applicable.
The mean apparent permeability (Papp×10^−6 cm/sec) of the test compounds, atenolol, propranolol and digoxin were calculated as follows:
where dq/dt=rate of transport (rate of transport of compound in the receiver compartment), C0=initial concentration in the donor compartment, A=surface area of the effective filter membrane.

IC50 (Human IBAT)	Papp A→B at 120 min, 10 μM [1]	Papp B→A at 120 min, 10 μM [1]	SMILES
26 nM	4.1 ×10⁻⁶ cm/s	1.9 ×10⁻⁶ cm/s	CCCCC1(CCCC)CN(c2ccc(Br)cc2)c2cc(SC)c(OCC(=O)O)cc2S(=O)(=O)C1 [Example 3, 2-((5-(4-bromophenyl)-3,3-dibutyl-7-(methylthio)-1,1-dioxido-2,3,4,5-tetrahydro-1,5-benzothiazepin-8-yl)oxy)acetic Acid]
15 nM	3.3 ×10⁻⁶ cm/s	8.9 ×10⁻⁶ cm/s	CCCCC1(CCCC)CN(c2ccc(O)cc2)c2cc(SC)c(OCC(=O)O)cc2S(=O)(=O)C1 [Example 4, 2-((3,3-dibutyl-5-(4-hydroxyphenyl)-7-(methylthio)-1,1-dioxido-2,3,4,5-tetrahydro-1,5-benzothiazepin-8-yl)oxy)acetic Acid]
